Test results reported in the OligoGym collection.
Values joined by “and” are separate entries in the source; they are usually repeats but may differ in a detail not shown here. Equal values may be shown once. After the bases stand the sugars from the 5' end (letter, count) and the backbone: PS all phosphorothioate, else s phosphorothioate and o phosphodiester by linkage. Methylation of C is not given here. e = 2'-O-(2-methoxyethyl) (MOE); d = 2'-deoxy (DNA)

Target: DGAT2
Conditions: ASO

Sequence	target mRNA inhibition (HepG2, 0.12 µM)	target mRNA inhibition (HepG2, 2.5 µM)	target mRNA inhibition (HepG2, 10 µM)	target mRNA inhibition (HepG2, 20 µM)
ACAGGACCCACTGGAGCACT (sugars e5 d10 e5, PS)	79%	–	–	–
ACATATCCCCAACTGAAACA (sugars e5 d10 e5, PS)	21%	–	–	–
ACCAGCTGGATGGGAAAGTA (sugars e5 d10 e5, PS)	21%	–	–	–
ACCCCCTCAGGAAGGCACAG (sugars e5 d10 e5, PS)	25%	–	–	–
ACCTCACCTCCATACTGGCA (sugars e5 d10 e5, PS)	–	65%	86%	–
ACCTCGATGTTACATTAAGG (sugars e5 d10 e5, PS)	–	68%	90%	–
ACTATCACACCACCTCCCAC (sugars e5 d10 e5, PS)	–	2%	62%	–
ACTCCCACCTGAGTGCTGCA (sugars e5 d10 e5, PS)	–	92%	80%	–
ACTCCCAGTACAAGGAAGGA (sugars e5 d10 e5, PS)	3%	–	–	–
ACTGAGATCTCCAGCAGCAA (sugars e5 d10 e5, PS)	–	50% and 61% and 56%	90% and 93% and 92%	–
ACTGAGATGACCTGTAGCTG (sugars e5 d10 e5, PS)	33%	–	–	–
ACTGGTGCCTAAGAGCCCTA (sugars e5 d10 e5, PS)	–	77%	94%	–
ACTTCTTCTGGACCCATCGG (sugars e5 d10 e5, PS)	28%	–	–	–
AGACCACATGAAGTATCTAA (sugars e5 d10 e5, PS)	50%	–	–	–
AGAGGATGCTGGATCCAGTG (sugars e5 d10 e5, PS)	45%	–	–	–
AGAGGGTTCCATGGCACAAA (sugars e5 d10 e5, PS)	67%	–	–	–
AGATATAGTTCCTGGTGGTC (sugars e5 d10 e5, PS)	56%	–	–	–
AGCACAGCGATGAGCCA (sugars e3 d10 e4, PS)	–	58%	87%	–
AGCACAGCGATGAGCCAGCA (sugars e5 d10 e5, PS)	35%	–	–	–
AGCACTGAGATGACCTGTAG (sugars e5 d10 e5, PS)	36%	–	–	–
AGCACTTGATCTGGGACCCA (sugars e5 d10 e5, PS)	–	65%	94%	–
AGCAGGTTGTGTGTCTTCAC (sugars e2 d13 e5, PS)	44%	–	–	–
AGCAGGTTGTGTGTCTTCAC (sugars e3 d14 e3, PS)	63%	–	–	–

Sequence	target mRNA inhibition (HepG2, 0.12 µM)	target mRNA inhibition (HepG2, 2.5 µM)	target mRNA inhibition (HepG2, 10 µM)	target mRNA inhibition (HepG2, 20 µM)
AGCATTGCCACTCCCATTCT (sugars e2 d13 e5, PS)	50%	–	–	–
AGCCAGGTAAGGCCGTATGC (sugars e3 d14 e3, PS)	51%	–	–	–
AGCCTCGGTGTCCTCTC (sugars e3 d10 e4, PS)	–	8%	90%	–
AGCGCAGAGCCCATCAGCCT (sugars e5 d10 e5, PS)	48%	–	–	–
AGCTCAGAGACTCAGCCGCA (sugars e5 d10 e5, PS)	–	38% and 44% and 55%	78% and 86%	89% and 97%
AGCTGCAAGGATGACCTTGG (sugars e5 d10 e5, PS)	–	52%	34%	–
AGCTGCTTTTCCACCTTGGA (sugars e2 d16 e2, PS)	45%	–	–	–
AGCTGGATGGGAAAGTAGTC (sugars e5 d10 e5, PS)	31%	–	–	–
AGCTTGGTGAATAGCTATGT (sugars e5 d10 e5, PS)	–	75% and 68%	93% and 92%	–
AGGACAGAGGTTCAACATCC (sugars e5 d10 e5, PS)	53%	–	–	–
AGGACCCACTGGAGCAC (sugars e3 d10 e4, PS)	–	42%	93%	–
AGGACCCACTGGAGCACTGA (sugars e3 d14 e3, PS)	82%	16%	38%	53%
AGGACCCCGGAGTAGGCGGC (sugars e2 d13 e5, PS)	81%	–	85%	–
AGGATGAACTAAATCCACCA (sugars e5 d10 e5, PS)	–	62%	90%	–
AGGATGCTTAACTTCTGCTG (sugars e5 d10 e5, PS)	–	82%	76%	–
AGGCAGATGGACAGGTGATT (sugars e5 d10 e5, PS)	–	54%	92%	–
AGGCATGCTTCCTCCCA (sugars e3 d10 e4, PS)	–	73%	49%	–
AGGCATGGAGCTCAGAGACT (sugars e2 d13 e5, PS)	78%	–	–	–
AGGCCCCTTCTGAAGAGGGA (sugars e5 d10 e5, PS)	43%	–	–	–
AGGCCTCGGGAAGCACCTGG (sugars e5 d10 e5, PS)	–	39%	84%	–
AGGCTCTGGTTCCATGCTCT (sugars e5 d10 e5, PS)	–	61%	79%	–
AGGCTGAGTTCTGCTCCTGG (sugars e5 d10 e5, PS)	–	72%	78%	–
AGGGAAGCATGTGCAGCCTA (sugars e5 d10 e5, PS)	–	72% and 66%	87% and 90%	–

Sequence	target mRNA inhibition (HepG2, 0.12 µM)	target mRNA inhibition (HepG2, 2.5 µM)	target mRNA inhibition (HepG2, 10 µM)	target mRNA inhibition (HepG2, 20 µM)
AGGTTAGCTGAGCCACCCAG (sugars e5 d10 e5, PS)	59%	–	–	–
AGGTTGTGTGTCTTCACCAG (sugars e5 d10 e5, PS)	59% and 74%	–	–	–
AGTAAGGGTATTCTGCTCAT (sugars e5 d10 e5, PS)	–	87%	77%	–
AGTCCAAACACTCAGGTAGG (sugars e5 d10 e5, PS)	–	66%	79%	–
AGTCTAGTTGGAAAAGTAGA (sugars e5 d10 e5, PS)	16%	–	–	–
AGTTCCTGGTGGTCAGCAGG (sugars e5 d10 e5, PS)	58%	–	–	–
AGTTTCCTTTGAAATCCAAT (sugars e5 d10 e5, PS)	–	65%	88%	–
AGTTTCGGACCCACTGTGAC (sugars e2 d13 e5, PS)	64%	–	–	–
AGTTTGCTCAGTTCTTCCAA (sugars e5 d10 e5, PS)	–	61%	91%	–
ATAACCCACAGACACCCATG (sugars e5 d10 e5, PS)	24%	–	–	–
ATAGGCCTGGATGCCCAAGT (sugars e5 d10 e5, PS)	–	49%	88%	–
ATATACAAAAGTCTGACATG (sugars e5 d10 e5, PS)	21%	–	–	–
ATCTCAGTCACTGACTCACA (sugars e5 d10 e5, PS)	–	46%	95%	–
ATGCCAATGCCTAGGTC (sugars e3 d10 e4, PS)	–	70% and 84%	–	–
ATGGGAATGGTATCGCACTC (sugars e5 d10 e5, PS)	–	57% and 72%	80% and 96%	–
ATTGCCACTCCCATTCTTTG (sugars e5 d10 e5, PS)	35%	–	–	–
CAAATCTGTGTGACCTTGGG (sugars e5 d10 e5, PS)	–	65%	93%	–
CACCAGCCAAGTGAAGTAGA (sugars e5 d10 e5, PS)	23%	–	–	–
CACCAGGGCCTCCATGTACA (sugars e3 d14 e3, PS)	41%	–	–	–
CACTAAATTAGGAAGCTGGG (sugars e5 d10 e5, PS)	–	81% and 82%	83% and 85%	–
CACTTCTGTGGCCTCTGTGC (sugars e5 d10 e5, PS)	38%	–	–	–
CAGCGATGAGCCAGCAA (sugars e3 d10 e4, PS)	–	35%	88%	–
CAGGACCCCGGAGTAGGCGG (sugars e5 d10 e5, PS)	75%	–	–	–

Sequence	target mRNA inhibition (HepG2, 0.12 µM)	target mRNA inhibition (HepG2, 2.5 µM)	target mRNA inhibition (HepG2, 10 µM)	target mRNA inhibition (HepG2, 20 µM)
CAGGACCTCAGGGCTGGCCC (sugars e5 d10 e5, PS)	–	57% and 50%	71%	–
CAGGCCCCACTGCTTAGAGG (sugars e5 d10 e5, PS)	48%	–	–	–
CAGGGTGACTTTGCCCCATT (sugars e5 d10 e5, PS)	43%	–	–	–
CAGGTAAGGCCGTATGCCTG (sugars e5 d10 e5, PS)	63%	–	–	–
CAGGTACTCCCTCAACACAG (sugars e5 d10 e5, PS)	52%	–	–	–
CAGGTCCTCCGTGAGAGCGC (sugars e5 d10 e5, PS)	29%	–	–	–
CAGGTTGTGTGTCTTCACCA (sugars e2 d13 e5, PS)	62%	–	–	–
CAGGTTGTGTGTCTTCACCA (sugars e3 d14 e3, PS)	68%	–	–	–
CAGTGCCCCATCTCCCAGAC (sugars e5 d10 e5, PS)	0%	–	–	–
CAGTTTCGGACCCACTGTGA (sugars e3 d14 e3, PS)	58%	–	–	–
CATGGAGCTCAGAGACTCAG (sugars e3 d14 e3, PS)	62%	–	–	–
CATGTCATCAGCCACCCAAG (sugars e5 d10 e5, PS)	16%	–	–	–
CATTGCCACCCCCATCCTCA (sugars e5 d10 e5, PS)	9%	–	–	–
CCAAAGATATAGTTCCTGGT (sugars e5 d10 e5, PS)	66%	–	–	–
CCAATGCCTAGGTCACAGTT (sugars e5 d10 e5, PS)	–	91%	83%	–
CCACCTTCCAGGGAATAAAA (sugars e5 d10 e5, PS)	22%	–	–	–
CCAGGCCAAGGCTGAGTCTG (sugars e5 d10 e5, PS)	27%	–	–	–
CCAGGGCCTCCATGTACATG (sugars e3 d14 e3, PS)	86%	–	59%	41%
CCAGGTAAGGCCGTATGCCT (sugars e2 d13 e5, PS)	64%	–	–	–
CCAGGTAAGGCCGTATGCCT (sugars e5 d10 e5, PS)	78% and 76%	18%	20%	43%
CCAGTTTCGGACCCACTGTG (sugars e2 d13 e5, PS)	80%	12%	25% and 50%	50%
